# “Also recorded” adds a separate entry of the source. Read-outs that look alike come from different tables or passages of the source.
# Assays:
# CD8+ CAR-T cells = conditions: FIG. 2C
# [1] = tested on: irradiated K562 cells expressing CD19 and mKate2; test: Target cell killing by compound-treated CAR-T cells (IncuCyte); format: cell-based, human; conditions: earlier time points, 24 to 65 hours; FIG. 4A
# Raji = test: Survival in Raji/NSG tumor model, suboptimal CAR-T dose; format: in vivo, NSG mice; conditions: 2.5×10^5 CD19 CAR-T cells; FIG. 12B; listed as PDK1 inhibitor
# Procedure: (§1) Next, an in vivo assay was conducted to further characterize CAR-T cells produced in the presence of a PI3K inhibitor or a PDK1 inhibitor for tumor clearance. NSG mice were injected with a human leukemia line, Nalm-6. Four days later, mice were treated with a suboptimal dose (3×10^5) of freshly thawed CD19 CAR-T cells generated in the presence of vehicle (“DMSO” n=8), PI3K inhibitor (n=8), or PDK1 inhibitor (n=8). Some tumor bearing mice (n=2) also received expanded T cells that were not transduced with CAR (untransduced or “UNTD”). Negative control mice (n=2, “Unmanip”) received neither tumor nor CAR T cells. […] Seven days later, a suboptimal dose (2.5×10^5) of CD19 CAR-T cells produced in the presence of DMSO, PDK1 inhibitor, or PI3K inhibitor were transferred and the survival of the tumor bearing mice was monitored.
# [2] = tested on: luciferase expressing Nalm6 tumor cells; test: Two-stage tumor clearance model, primary tumor; format: in vivo, NSG mice; conditions: compared to DMSO treated CAR-T; FIG. 13C
# Procedure: (§2) To further assess tumor clearance and control by CAR-T cells modulated with a selected compound, a two-stage tumor clearance model was established. […] Secondary tumor burden was measured via bi-weekly caliper measurements and IVIS imaging. IVIS control mice received neither tumor nor CAR-T cells and served as the background luminescence for the IVIS imager.
# Nalm-6 = test: Survival in Nalm6/NSG tumor model, suboptimal CAR-T dose; format: in vivo, NSG mice; conditions: 3×10^5 CD19 CAR-T cells; FIG. 12A; listed as PDK1 inhibitor
# Procedure: as §1
# [3] = tested on: K562 tumor cells engineered to express CD19 and luciferase; test: Two-stage tumor clearance model, secondary tumor re-challenge; format: in vivo, NSG mice; conditions: re-challenge 47 days post primary tumor, FIG. 13D
# Procedure: as §2
# CD8+ T cells = test: Cytokine production (IFNγ, IL-2, TNFα) after PMA/ionomycin, intracellular staining; format: cell-based, human; conditions: PMA/ionomycin 4 h; FIG. 3D
# Procedure: The ability of T cells to respond to a variety of stimuli can be important to their function. The capacity of T cells to produce multiple cytokines in response to non-specific stimulation is a measure of their ‘multifunctionality’. To assess whether compounds affect this ‘multifunctional’ response, the ability of modulated T cells to produce interferon-γ (IFNγ), IL-2 and/or TNFα post-stimulation was determined. After CD8^+ T cell treatment with each of the selected compounds, cells were stimulated with a mixture of PMA/ionomycin for four hours. Following stimulation, cytokine production was measured using intracellular cytokine staining with antibodies recognizing these cytokines conjugated to different fluorophores. Fluorescence was measured using flow cytometry. Cell were defined as multifunctional if they produced two or more cytokines. The proportion of T cell subsets that produce specific single, double or triple cytokines was examined and compared to cells without modulation using a selected compound.
# The ability of T cells to respond to a variety of stimuli is important for their function. The capacity of T cells to produce multiple cytokines in response to non-specific stimulation is a measure of their “multifunctionality”. To assess whether selected compounds affect this “multifunctional” response in view of their phenotype skewing effect on the treated cells, the ability of treated cells to produce interferon-γ (IFNγ), IL-2 and TNFα post-stimulation was determined. After treatment of CD8+ T cells with a compound from Table 1, cells were stimulated with a mixture of PMA/ionomycin for four hours. Following stimulation, cytokine production was measured by intracellular cytokine staining with fluorescence-emitting antibodies recognizing these cytokines conjugated to different fluorophores. Fluorescence was measured using flow cytometry. Cells were defined as multifunctional if they produced at least two of the three cytokines.
# CAR-T cells = test: Serial restimulation of CAR-T cells produced with vehicle, PI3K inhibitor or PDK1 inhibitor; format: cell-based, human; conditions: after antigen stimulation and withdrawal, and with coated beads; FIG. 10 legend
# Procedure: At the end of the manufacturing process, the cells were frozen prior to subsequent functional analysis.
# The ability of CAR-T cells produced in the presence of vehicle, PI3K inhibitor, or PDK1 inhibitor to expand through multiple rounds of antigen stimulation was measured in a serial restimulation assay, wherein cryopreserved CAR-T cells were thawed and co-cultured in the presence of antigen-bearing, irradiated target cells. Every 3 to 4 days the CAR-T and target cell ratios were readjusted to approximately 1:1. […] As an alternative to using antigen-bearing, irradiated target cells for CAR-T cell stimulation, cryopreserved CAR-T cells from three independent donors produced in the presence of vehicle, PI3Ki or PDKli were thawed in T cell growth media and subsequently assessed for expansion and survival, as measured by AUC (area under the curve) of the expansion over 14 days of stimulation with anti-CAR antibodies conjugated to beads.
# [4] = tested on: CD19 and BCMA CAR-T cells; test: Cytokine production on stimulation with antigen-bearing cells, MSD analysis; format: cell-based, human
# [5] = tested on: CAR-T cells in spleen and bone marrow; test: In vivo persistence of CAR-T cells during and after tumor clearance; design: species or system mice; conditions: FIG. 9 legend
# Description: Further, in vivo persistence of compound-treated CAR-T cells during and after tumor clearance was also investigated. One of the main correlates of successful CAR-T cell therapy in patients is the persistence of CAR-T cells (i.e., through cell survival and/or cell expansion in vivo). To model CAR-T cell persistence in vivo, CD4+ and CD8+ T cells were separately expanded and transduced with a lentivirus encoding CAR-T2A-Thy1 and cultured in the presence of DMSO or a lentivirus encoding CAR-T2A-GFP and cultured in the presence of a testing compound (Table 3). Then a cohort of mice were injected with a curative dose (2×10^6) of CAR-T cells that was composed of CAR-T cell subsets from two different expansion protocols and mixed at approximately a 1:1:1:1 ratio, and the initial ratio of the CAR-T cells subsets in the injection mix was further determined prior to injection. All mice in the cohort had received Nalm-6-luc cells 4 days earlier and were able to clear the tumor by the injected CAR-T cells.
# At day 7, 15, 21, and 32 post CAR-T cell injection (day 0: tumor engraftment, day 4: CAR-T cell injection) mice were sacrificed and the relative proportions of the CAR-T cells expanded in DMSO or the testing compound in both spleen and bone marrow were determined. FIG. 9 exemplifies the effect of a PDK1 inhibitor treatment on CAR-T cell in vivo persistence. […]
smiles,measurement,setting,value
"CNc1nc(-c2ccc3c(N)n[nH]c3c2)cc(N2C[C@@H](C(=O)NC3CCCCC3)CC[C@H]2C)n1 [Compound 21, GSK2334470]",donors in which treatment significantly improved expansion of CD8+ CAR-T cells vs vehicle,CD8+ CAR-T cells; 5 healthy donors,4 out of 5
same,expansion of CD8+ CAR-T cells in comparison to vehicle treatment,CD8+ CAR-T cells; listed as PDK1i,significantly improved
same,expansion of CD8+ CAR-T cells in comparison to vehicle treatment,CD8+ CAR-T cells; listed as PDK1 inhibitor,improves expansion
same,kinetics of target cell killing compared to vehicle,[1],slower than for vehicle
same,survival of tumor bearing mice compared to DMSO treated CAR-T cells,Raji,substantially improved; also recorded: improves survival
same,in vivo efficacy at day 11 post primary tumor injection,[2],greater in vivo efficacy
same,survival of tumor bearing mice compared to DMSO generated CAR-T cells,Nalm-6,prolonged survival; also recorded: improves survival
same,control of secondary tumor,[3]; listed as PDK1,superior and rapid control of secondary tumor
same,control of secondary tumor,[3]; listed as PDK1 inhibitor,rapid control of secondary tumor
same,increase of IFNγ+ only subpopulation,CD8+ T cells,~10 fold
same,increase of IL-2 only subpopulation,CD8+ T cells,~19 fold
same,CAR-T cell expansion,CAR-T cells,improves CAR-T cell expansion
same,IL-2 production compared to DMSO,[4]; after 14 days of CAR activation,overall greater amounts of IL-2
same,IL-2 production compared to DMSO,[4]; immediately following thaw (day 0),greater amounts of IL-2
same,IFNγ and TNF production compared to DMSO,[4]; post thaw,comparable
same,persistence of CAR-T cells during and after tumor clearance in vivo,[5],increased persistence

# From patent US12036241B2, “Compositions and methods for immune cell modulation in adoptive immunotherapies” (Fate Therapeutics, Inc., priority 2017, dated 2024)
